In ChEMBL document CHEMBL5614416, “Discovery of novel thiophene[3,2-d]pyrimidine-based tubulin inhibitors with enhanced antitumor efficacy for combined use with anti-pd-l1 immunotherapy in melanoma” (Eur J Med Chem, 2024):
Calls of active or inactive are those of the source. No cut-off for these calls is given here.

Legend:
[1] = test system: B16-F10; experiment: Induction of apoptosis in mouse B16-F10 cells assessed as late apoptotic cells at 0.5 nM incubated for 12 hrs by Annexin V-FITC/PI staining based flow cytometry (reference value: 2.39 %); type: functional
[2] = Toxicity in C57 mouse xenografted with mouse B16-F10 cells assessed as WBC count at 7 mg/kg, ip qd for 12 days by biochemical analysis (reference value: 8.240 to 8.340 10^9/L); type: organism-based; conditions: in vivo, 288 h, time 12 day
[3] = Toxicity in C57 mouse xenografted with mouse B16-F10 cells assessed as RDW-CV at 3.5 mg/kg, ip qd for 12 days in presence of NP-19 by biochemical analysis (reference value: 14.300 to 14.300); type: organism-based; conditions: in vivo, 288 h, time 12 day
[4] = test system: B16-F10; experiment: Induction of apoptosis in mouse B16-F10 cells assessed as viable cells at 2 nM incubated for 12 hrs by Annexin V-FITC/PI staining based flow cytometry (reference value: 93.6 %); type: functional; conditions: read-out: Activity
[5] = Toxicity in C57 mouse xenografted with mouse B16-F10 cells assessed as eosinophil level at 3.5 mg/kg, ip qd for 12 days in presence of NP-19 by biochemical analysis (reference value: 0.700 to 1.000 %); type: organism-based; conditions: in vivo, 288 h, time 12 day
[6] = Toxicity in C57 mouse xenografted with mouse B16-F10 cells assessed as basophil count at 3.5 mg/kg, ip qd for 12 days in presence of NP-19 by biochemical analysis (reference value: 0.060 to 25.500 10^9/L); type: organism-based; conditions: in vivo, 288 h, time 12 day
[7] = test system: B16-F10; experiment: Induction of apoptosis in mouse B16-F10 cells assessed as late apoptotic cells at 1 nM incubated for 12 hrs by Annexin V-FITC/PI staining based flow cytometry (reference value: 2.39 %); type: functional
[8] = Toxicity in C57 mouse xenografted with mouse B16-F10 cells assessed as neutrophil count at 7 mg/kg, ip qd for 12 days by biochemical analysis (reference value: 2.130 to 5.46 10^9/L); type: organism-based; conditions: in vivo, 288 h, time 12 day
[9] = test system: MCF7; experiment: Inhibition of cell migration in human MCF7 cells assessed as migration rate at 1 nM incubated for 24 hrs by wound healing assay (reference value: 18.1 %); type: functional; parameters: scale not given: the % may be the effect or the level left
[10] = Toxicity in C57 mouse xenografted with mouse B16-F10 cells assessed as morphological abnormality in liver at 7 mg/kg, ip qd for 12 days by H and E staining based analysis; type: organism-based; conditions: in vivo, 288 h, time 12 day
[11] = Toxicity in C57 mouse xenografted with mouse B16-F10 cells assessed as morphological abnormality in kidney at 3.5 mg/kg, ip qd for 12 days in presence of NP-19 by H and E staining based analysis; type: organism-based; conditions: in vivo, 288 h, time 12 day
[12] = Toxicity in C57 mouse xenografted with mouse B16-F10 cells assessed as PCT level at 7 mg/kg, ip qd for 12 days by biochemical analysis (reference value: 0.425 to 5.300); type: organism-based; conditions: in vivo, 288 h, time 12 day
[13] = test system: B16-F10; experiment: Antitumor activity against mouse B16-F10 cells xenografted in C57 mouse at 3.5 mg/kg, ip qd for 12 days in presence of NP-19 relative to control; type: functional; conditions: B16-F10, 288 h, time 12 day, read-out: TGI
[14] = Toxicity in C57 mouse xenografted with mouse B16-F10 cells assessed as morphological abnormality in heart at 7 mg/kg, ip qd for 12 days by H and E staining based analysis; type: organism-based; conditions: in vivo, 288 h, time 12 day
[15] = Toxicity in C57 mouse xenografted with mouse B16-F10 cells assessed as body weight change at 7 mg/kg, ip qd for 12 days; type: organism-based; conditions: in vivo, 288 h, time 12 day
[16] = test system: HCT-116; experiment: Antiproliferative activity against human HCT-116 cells incubated for 48 hrs by MTT assay; type: functional, cell-based; conditions: HCT-116, 48 h
[17] = test system: B16-F10; experiment: Induction of cell cycle arrest in mouse B16-F10 cells assessed as accumulation of cells at S phase at 1 nM incubated for 12 hrs by flow cytometry (reference value: 30.5 %); type: functional
[18] = test system: B16-F10; experiment: Induction of apoptosis in mouse B16-F10 cells assessed as early apoptotic cells at 0.5 nM incubated for 12 hrs by Annexin V-FITC/PI staining based flow cytometry (reference value: 3.81 %); type: functional
[19] = test system: HeLa; experiment: Antiproliferative activity against human HeLa cells incubated for 48 hrs by MTT assay; type: functional, cell-based
[20] = test system: MCF7; experiment: Induction of apoptosis in human MCF7 cells assessed as increase in Bax level upto 30 nM incubated for 24 hrs by Western blot analysis; type: functional, cell-based
[21] = Toxicity in C57 mouse xenografted with mouse B16-F10 cells assessed as MCV level at 7 mg/kg, ip qd for 12 days by biochemical analysis (reference value: 15.800 to 48.900 fL); type: organism-based; conditions: in vivo, 288 h, time 12 day
[22] = Toxicity in C57 mouse xenografted with mouse B16-F10 cells assessed as MCV level at 3.5 mg/kg, ip qd for 12 days in presence of NP-19 by biochemical analysis (reference value: 15.800 to 48.900 fL); type: organism-based; conditions: in vivo, 288 h, time 12 day
[23] = test system: B16-F10; experiment: Inhibition of cell migration in mouse B16-F10 cells assessed as migration rate at 2 nM incubated for 24 hrs by wound healing assay (reference value: 61.1 %); type: functional; parameters: scale not given: the % may be the effect or the level left
[24] = Toxicity in C57 mouse xenografted with mouse B16-F10 cells assessed as basophil count at 7 mg/kg, ip qd for 12 days by biochemical analysis (reference value: 0.060 to 25.500 10^9/L); type: organism-based; conditions: in vivo, 288 h, time 12 day
[25] = Toxicity in C57 mouse xenografted with mouse B16-F10 cells assessed as MPV level at 7 mg/kg, ip qd for 12 days by biochemical analysis (reference value: 6.200 to 15.000); type: organism-based; conditions: in vivo, 288 h, time 12 day
[26] = test system: B16-F10; experiment: Induction of apoptosis in mouse B16-F10 cells assessed as early apoptotic cells at 2 nM incubated for 12 hrs by Annexin V-FITC/PI staining based flow cytometry (reference value: 3.81 %); type: functional
[27] = test system: B16-F10; experiment: Induction of apoptosis in mouse B16-F10 cells assessed as late apoptotic cells at 2 nM incubated for 12 hrs by Annexin V-FITC/PI staining based flow cytometry (reference value: 2.39 %); type: functional
[28] = test system: B16-F10; experiment: Inhibition of cell migration in mouse B16-F10 cells assessed as reduction in wound closure incubated for 24 hrs by wound healing assay; type: functional, cell-based
[29] = test system: B16-F10; experiment: Induction of cell cycle arrest in mouse B16-F10 cells assessed as accumulation of cells at S phase at 2 nM incubated for 12 hrs by flow cytometry (reference value: 30.5 %); type: functional
[30] = Toxicity in C57 mouse xenografted with mouse B16-F10 cells assessed as MCHC level at 7 mg/kg, ip qd for 12 days by biochemical analysis (reference value: 324.000 to 683.000 g/L); type: organism-based; conditions: in vivo, 288 h, time 12 day
[31] = test system: B16-F10; experiment: Antiproliferative activity against mouse B16-F10 cells incubated for 48 hrs by MTT assay; type: functional, cell-based; conditions: B16-F10, 48 h
[32] = test system: B16-F10; experiment: Induction of cell cycle arrest in mouse B16-F10 cells assessed as accumulation of cells at G2 phase at 2 nM incubated for 12 hrs by flow cytometry (reference value: 13.6 %); type: functional
[33] = Toxicity in C57 mouse xenografted with mouse B16-F10 cells assessed as monocytes count at 7 mg/kg, ip qd for 12 days by biochemical analysis (reference value: 0.080 to 0.610 10^9/L); type: organism-based; conditions: in vivo, 288 h, time 12 day

SMILES: Cc1nc(N(C)c2ccc3c(ccn3C)c2)c2sccc2n1
- Activity [1]: 7.06%
- Activity [2]: 2.51 10^9/L
- Activity [3]: 14
- viability at 0.002 µM [4]: 75%
- Activity [5]: 0.3%
- Activity [6]: 0.01 10^9/L
- Activity [7]: 7.92%
- Activity [8]: 0.85 10^9/L
- Activity [9]: 15.7%
- Activity [10]: Non-Toxic
- Activity [11]: Non-Toxic
- Activity [12]: 0.329
- inhibition in vivo at 3.5 mg/kg [13]: 75.7%
- Activity [14]: Non-Toxic
- Activity [15]: Non-Toxic
- IC50 [16]: 0.38 nM
- Activity [17]: 22.3%
- Activity [18]: 11.2%
- IC50 [19]: 5.37 nM
- Activity [20]: Active
- Activity [21]: 15.8 fL
- Activity [22]: 15.7 fL
- Activity [23]: 34.6%
- Activity [24]: 0.01 10^9/L
- Activity [25]: 6
- Activity [26]: 14.2%
- Activity [27]: 8.65%
- inhibition [28]: Dose-Dependent Effect
- Activity [29]: 19.3%
- Activity [30]: 322 g/L
- IC50 [31]: 11.7 nM
- Activity [32]: 72.8%
- Activity [33]: 0.01 10^9/L
